According to US20230391779A1, “BICYCLIC COMPOUNDS, COMPOSITIONS AND USE THEREOF” (Betta Pharmaceuticals Co., Ltd., priority 2020, published 2023):

system: TEAD-YAP/TAZ interaction; experiment: CTGF ELISA assay; type: cell-based, human; conditions: CTGF in culture supernatant of NCI-H2052 cells, 24 hours with compound
Method: The detection of CTGF expression level can assessed the binding activity of TEAD-YAP/TAZ transcription factor, and the CTGF expression level was quantified by SimpleStep ELISA® kit (Abcam, ab261851).
NCI-H2052 cells (Purchased from ATCC) were cultured in RPMI 1640 medium, adding 10% FBS and 1% Penicillin-Streptomycin Solution and 1 mM Sodium pyruvate. The day before compounds treatment, the cultured cells were washed with PBS and digested with trypsin, then centrifuged and collected. Discarded the supernatant, the cells were resuspended in fresh complete medium. After cells counted, cells were seeded at 6500 cells/well in 96-well plates. And then cells were cultured overnight in incubator (37° C., 5% CO2).
After the cells were cultured overnight, discarded the culture supernatant, then washed with PBS solution, cells were incubated with 200 μl medium containing compounds in each well. The starting concentration was 10 μM and serial dilution in DMSO and medium were performed to achieve a final DMSO concentration of 0.5% (Final compounds concentration were 10000, 2500, 625, 156, 39.1, 9.77, 2.44, 0.61 nM, 0 nM (0.5% DMSO), The cells were then cultured in incubator (37° C., 5% CO2). Cultured for 24 hours, the cells were centrifuged at 1500 RPM at 4° C. for 5 minutes, and then 50 μl of culture supernatant were tested for CTGF ELISA assay.
The Human CTGF SimpleStep ELISA® Kit (Abcam, ab261851) employs an affinity tag labeled capture antibody and a reporter conjugated detector antibody which immunocapture the sample analyte in solution. This entire complex (capture antibody/analyte/detector antibody) is in turn immobilized via immunoaffinity of an anti-tag antibody coating the well. To perform the assay, samples or standards are added to the wells, followed by the antibody mix (capture antibody/detector antibody). After incubation, the wells are washed to remove unbound material. TMB Development Solution is added and during incubation is catalyzed by HRP, generating blue coloration. This reaction is then stopped by addition of Stop Solution completing any color change from blue to yellow. Signal is generated proportionally to the amount of bound analyte and the intensity is measured at 450 nm. Firstly, prepare all reagents, samples, and standards as instructed. Add 50 μl standard or sample to appropriate wells. Then add 50 μl of the Antibody Cocktail to each well. Seal the plate and incubate for 1 hour at room temperature on a plate shaker. Wash each well with Wash Buffer three times. Add 100 μl of TMB Development Solution to each well and incubate for 10 minutes in the dark on a plate shaker. Add 100 μl of Stop Solution to each well. Shake plate on a plate shaker for 1 minute to mix. Record the OD at 450 nm. Determine the concentration of the target protein in the sample by the standard curve.
EC50 value was determined by fitting the concentration response curves using GraphPad Prism software. The compounds of the present invention were tested for their capacity to inhibit TEAD-YAP/TAZ interaction according to the fitted curves of CTGF concentration response to compounds.

| Structure (SMILES) | EC50 |
| --- | --- |
| C=C(F)C(=O)N1CC(n2nc(-c3ccc(C(F)(F)F)nc3)c3nccnc32)C1 [Compound 198, 2-fluoro-1-(3-(3-(6-(trifluoro-methyl)pyridin-3-yl)-1H-pyrazolo[3,4-b]pyrazin-1-yl)-azetidin-1-yl)prop-2-en-1-one] | 0.9 nM |
| C=CC(=O)N1CCC(n2nc(-c3ccc(C(F)(F)F)cc3)c3cccc(C(N)=O)c32)C1 (centres unmarked) [Compound 42, 1-(1-acryloylpyrrolidin-3-yl)-3-(4-(trifluoromethyl)phenyl)-1H-indazole-7-carboxamide] | 14 nM |
| C=C(F)C(=O)N1CC(n2nc(-c3ccc(C(F)(F)F)cc3)c3ccnc(OC)c32)C1 [Compound 222, 2-fluoro-1-(3-(7-methoxy-3-(4-(trifluoromethyl)phenyl)-1H-pyrazolo[3,4-c]pyridin-1-yl)-azetidin-1-yl)prop-2-en-1-one] | 0.9 nM |
| C=CC(=O)N1CCC(n2nc(-c3ccc(C(F)(F)F)cc3)c3ccncc32)C1 (centres unmarked) [Compound 22, 1-(3-(3-(4-(trifluoromethyl)phen-yl)-1H-pyrazolo[3,4-c]pyridin-1-yl)pyrrolidin-1-yl)prop-2-en-1-one] | 20 nM |
| C=C(F)C(=O)N1CC(n2nc3c(c2-c2ccc(C(F)(F)F)cc2)COCC3)C1 [Compound 209, 2-fluoro-1-(3-(3-(4-(trifluoro-methyl)phenyl)-6,7-dihydro-pyrano[4,3-c]pyrazol-2(4H)-yl)azetidin-1-yl)prop-2-en-1-one] | 25 nM |
| C=C(F)C(=O)N1CC(n2nc(-c3cnc(C(F)(F)F)c(F)c3)c3cccnc32)C1 [Compound 184, 2-fluoro-1-(3-(3-(5-fluoro-6-(trifluoromethyl)pyridin-3-yl)-1H-pyrazolo[3,4-b]pyridin-1-yl)-azetidin-1-yl)prop-2-en-1-one] | 7.69 nM |
| C=CC(=O)N1CC(n2nc(-c3ccc(C(F)(F)F)nc3)c3cccnc32)C1 [Compound 123, 1-(3-(3-(6-(trifluoromethyl)pyr-idin-3-yl)-1H-pyrazolo[3,4-b]-pyridin-1-yl)azetidin-1-yl)prop-2-en-1-one] | 7 nM |

Next, values leading:

| EC50 | Structure (SMILES) |
| --- | --- |
| 2 nM | C=C(F)C(=O)N1CC(n2nc(-c3ccc(C(F)(F)F)cc3)c3ccc(C)nc32)C1 [Compound 186, 2-fluoro-1-(3-(6-methyl-3-(4-(trifluoromethyl)phenyl)-1H-pyrazolo[3,4-b]pyridin-1-yl)-azetidin-1-yl)prop-2-en-1-one] |
| 10 nM | C=CC(=O)N1CCC(n2nc(-c3ccc(C(F)(F)F)cc3)c3nccnc32)C1 (centres unmarked) [Compound 18, 1-(3-(3-(4-(trifluoromethyl)phen-yl)-1H-pyrazolo[3,4-b]pyrazin-1-yl)pyrrolidin-1-yl)prop-2-en-1-one] |
| 6.4 nM | C=C(F)C(=O)N1CC(n2c(=O)n(-c3ccc(C(F)(F)F)cc3)c3cccnc32)C1 [Compound 230, 3-(1-(2 fluoroacryloyl)azetidin-3 yl)-1-(4-(trifluoromethyl)phenyl)-1,3-dihydro-2H-imidazo[4,5-b]pyridin-2-one] |
| 36 nM | C=CC(=O)N1CC(n2nc(-c3ccc(C4CC4)cc3)c3ncccc32)C1 [Compound 120, 1-(3-(3-(4-cyclopropylphenyl)-1H-pyrazolo[4,3-b]pyridin-1-yl)-azetidin-1-yl)prop-2-en-1-one] |
| 5 nM | C=CC(=O)N1CC(n2nc(-c3ccc(C(F)(F)F)cc3)c3ncccc32)C1 [Compound 82, 1-(3-(3-(4-(trifluoromethyl)phen-yl)-1H-pyrazolo[4,3-b]pyridin-1-yl)azetidin-1-yl)prop-2-en-1-one] |
| 0.7 nM | C=C(F)C(=O)N1CC(n2nc(Nc3ccc(C(F)(F)F)cc3)c3ccc(C)nc32)C1 [Compound 11, 2 fluoro-1-(3-(6-methyl-3-((4-(trifluoromethyl)phenyl)amino)-1H-pyrazolo[3,4-b]pyridin-1 yl)azetidin-1 yl)prop-2-en-1-one] |
| 4 nM | C=CC(=O)N1CCC(n2nc(-c3ccc(C(F)(F)F)cc3)c3cc(C)cnc32)C1 (centres unmarked) [Compound 96, 1-(3-(5-methyl-3-(4-(trifluoro-methyl)phenyl)-1H-pyrazolo[3,4-b]pyridin-1-yl)pyrrolidin-1-yl)-prop-2-en-1-one] |
